Assays:
in vivo [1] = conditions: C57BL/6, mouse, kidney, sc, 5 mg/kg
in vivo [2] = conditions: C57BL/6, mouse, kidney, sc, 5 mg/kg; remark: listed apart in the source

SMILES: Cc1ccccc1C(=O)Nc1ccc(C(=O)N2CCCC(O)c3cc(Cl)ccc32)c(C)c1 (configuration not stated) [TOLVAPTAN]
- concentration at 0.5 h (in vivo [1]): 6100 ng/g
- concentration at 1 h (in vivo [2]): 3900 ng/g

Reference: ChEMBL document CHEMBL5143707, “Benzodiazepine Derivatives as Potent Vasopressin V2 Receptor Antagonists for the Treatment of Autosomal Dominant Kidney Disease” (J Med Chem, 2022)
